Source: publication PMC6391970, “Design, Synthesis and Characterization of Covalent KDM5 Inhibitors” (Angewandte Chemie (International Ed. in English), 2018)

Tested on: HEK-293 cells
Assay: Cytotoxicity assessment, Cell Titer-Glo, 72 hours
Assay type: cell-based, human
Details: CTG viability at 72 hrs
Description: Immunofluorescence‐based assays have been previously used to analyse global changes in H3K4me3 as a measure of KDM5 activity, but the global change can be affected by other factors such as cytotoxicity.17 We therefore employed chromatin immunoprecipitation and sequencing (ChIP‐seq) as a more accurate method to quantify the H3K4me3 level at transcriptional start sites (TSS) as a read‐out for inhibition of KDM5 activity. […] Compounds 4, 7 and 9 were selected for H3K4me3 ChIP‐seq experiments and quantification.18 […]
Covalent binding RapidFire
Recombinant KDM5B (MW = 55152 Da) was incubated at 1 μM with the appropriate compound at 10 μM for 2 hours at 37 °C in 50 mM MES buffer at pH 7.0. Samples were injected in RapidFire 365 and MS was detected in QTOF mass spectrometer. Data were acquire and analysed with Agilent Mass Hunter software. […]
Digestion with elastase (1 µL) overnight at 37 °C followed by purification with SEP-PAK C18 columns and resuspension of the final sample in 98% MilliQ-H20 2% CH3CN 0.1% TFA gave the final sample ready to inject. […]
NanoBRET™ Nano-Glo® substrate (Promega UK) and Extracellular NanoLuc Inhibitor (Promega UK) were added at final concentrations of 10 and 20 µM, respectively. Readings were performed within 5 minutes using a PHERAstar FSX (BMG Labtech) with 450 and 610 nm filters. […] BRET ratios are expressed as milliBRET units (mBU), where 1 mBU corresponds to […]

SMILES: CN(CCc1cnn(-c2nccc3c(=O)[nH]cnc23)c1)Cc1cccc(NC(=O)CCl)c1 [Compound 5]
- cytotoxicity in HEK cells: with the exception of 5, compounds were not cytotoxic
